According to patent US20070149570A1, “Piperidine derivative and use thereof” (priority 2005, published 2007):
Where two headings read alike, the source gives them in different places.

Target: T1, substance P receptors (Homo sapiens, UniProt P25103)
T1 construct: The receptor was prepared from human lymphoblast cells (IM-9); endogenous in cells; host or cells: IM-9 human lymphoblast cells (membrane preparation)
Assay: Radioligand receptor binding inhibitory activity using receptor from human lymphoblast cells (IM-9), 125I-BHSP
Settings: radioligand 125I-BHSP, 25° C., 30 minutes
Experimental: Radioligand receptor binding inhibitory activity (Binding inhibitory activity using receptor from human lymphoblast cells (IM-9))
The method of M. A. Cascieri et al., [Molecular Pharmacology, vol. 42, p. […] The receptor was prepared from human lymphoblast cells (IM-9). IM-9 cells (2×10^5 cells/mL) were incubated for 3 days (one liter), which was then subjected to centrifugation for 5 minutes at 500×G to obtain cell pellets. […] The residue was washed twice with 30 mL of the above-mentioned buffer, which was then preserved frozen (−80° C.) as a specimen of the receptor.
The specimen was suspended in a reaction buffer (50 mM Tri-HCl buffer (pH 7.4), 0.02% bovine serum albumin, 1 mM phenylmethylsulfonyl fluoride, 2 μg/mL chymostatin, 40 μg/mL bacitracin and 3 mM manganese chloride) to have protein in the concentration of 0.5 mg/mL of protein and 100 μL portion of the suspension was used in the reaction. […] The amount of nonspecific binding was determined by adding substance P at a final concentration of 2×10^−6 M.
After the reaction, using a cell harvester (290 PHD, Cambridge Technology, Inc., U.S.A.), filtration was carried out through a glass filter (GF/B, Whatman, U.S.A.), which was immersed in 0.1% polyethyleneimine for 24 hours and dried. After washing three times with 250 μL of 50 mM Tris-HCl buffer (pH 7.4) containing 0.02% bovine serum albumin, the radioactivity remaining on the filter was determined with a gamma counter.

[1] = read-out: IC50 (concentration necessary to cause 50% inhibition)

T1 sequence (P25103 whole entry): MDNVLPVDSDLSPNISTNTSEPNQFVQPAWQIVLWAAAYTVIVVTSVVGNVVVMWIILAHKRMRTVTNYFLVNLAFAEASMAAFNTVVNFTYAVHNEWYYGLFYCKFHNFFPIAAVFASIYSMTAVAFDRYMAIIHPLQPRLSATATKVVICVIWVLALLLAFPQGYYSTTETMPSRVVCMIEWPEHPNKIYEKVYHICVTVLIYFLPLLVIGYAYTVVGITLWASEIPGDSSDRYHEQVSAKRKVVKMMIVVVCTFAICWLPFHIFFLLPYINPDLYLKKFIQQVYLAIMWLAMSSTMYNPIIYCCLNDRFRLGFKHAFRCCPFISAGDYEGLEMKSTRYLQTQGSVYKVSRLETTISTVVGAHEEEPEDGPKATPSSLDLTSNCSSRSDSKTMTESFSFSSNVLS

COc1ccc(-c2ccc(C#N)cc2)cc1CN[C@H]1CCN(C(=O)C2CC(=O)NC(=O)C2)C[C@H]1c1ccccc1 [Example 42, 3′-[({(3R,4S)-1-[(2,6-dioxopiperidin-4-yl)carbonyl]-3-phenylpiperidin-4-yl}amino)methyl]-4′-methoxybiphenyl-4-carbonitrile]
IC50 [1]: 0.014 nM

COc1ccc(-c2ccc(C#N)cc2)cc1CN[C@H]1CCN(C(=O)C2CCN(C(C)=O)CC2)C[C@H]1c1ccccc1 [Example 35, 3′-[({(3R,4S)-1-[(1-acetylpiperidin-4-yl)carbonyl]-3-phenylpiperidin-4-yl}amino)methyl]-4′-methoxybiphenyl-4-carbonitrile]
IC50 (IC50 (concentration necessary to cause 50% inhibition)): 0.017 nM

CC(=O)N1CCC(C(=O)N2CC[C@H](NCc3cc(-c4ccc(C#N)cc4F)ccc3OC(F)(F)F)[C@H](c3ccccc3)C2)CC1 [Example 101, 3′-[({(3R,4S)-1-[(1-acetylpiperidin-4-yl)carbonyl]-3-phenylpiperidin-4-yl}amino)methyl]-2-fluoro-4′-(trifluoromethoxy)biphenyl-4-carbonitrile]
IC50 [1]: 0.024 nM

CC(=O)NCC(=O)N1CC[C@H](NCc2cc(-c3ccc(Cl)cc3)ccc2OC(F)(F)F)[C@H](c2ccccc2)C1 [Example 72, N-{2-[(3R,4S)-4-({[4′-chloro-4-(trifluoromethoxy)biphenyl-3-yl]methyl}amino)-3-phenylpiperidin-1-yl]-2-oxoethyl}acetamide]
IC50 [1]: 0.023 nM

COc1ccc(-c2ccc(C#N)cc2)cc1CN[C@H]1CCN(C(=O)Cn2cnnn2)C[C@H]1c1ccccc1 [Example 43, 4′-methoxy-3′-({[(3R,4S)-3-phenyl-1-(1H-tetrazol-1-ylacetyl)piperidin-4-yl]amino}methyl)biphenyl-4-carbonitrile]
IC50 [1]: 0.015 nM

COc1ccc(-c2ccc(C#N)cc2C)cc1CN[C@H]1CCN(C(=O)CNC(C)=O)C[C@H]1c1ccccc1 [Example 25, N-[2-((3R,4S)-4-{[(4′-cyano-4-methoxy-2′-methylbiphenyl-3-yl)methyl]amino}-3-phenylpiperidin-1-yl)-2-oxoethyl]acetamide]
IC50 [1]: 0.018 nM

COc1ccc(-c2ccc(C)cc2)cc1CN[C@H]1CCN(C(=O)CNC(C)=O)C[C@H]1c1ccccc1 [Example 17, N-[2-((3R,4S)-4-{[(4-methoxy-4′-methylbiphenyl-3-yl)methyl]amino}-3-phenylpiperidin-1-yl)-2-oxoethyl]acetamide]
IC50 [1]: 0.022 nM

CC1(C)OC(=O)N(CC(=O)N2CC[C@H](NCc3cc(-c4ccc(C#N)cc4F)ccc3OC(F)(F)F)[C@H](c3ccccc3)C2)C1=O [Example 96, 3′-[({(3R,4S)-1-[(5,5-dimethyl-2,4-dioxo-1,3-oxazolidin-3-yl)acetyl]-3-phenylpiperidin-4-yl}amino)methyl]-2-fluoro-4′-(trifluoromethoxy)biphenyl-4-carbonitrile]
IC50 [1]: 0.021 nM

COCC(=O)N1CC[C@H](NCc2cc(-c3ccc(C#N)cc3F)ccc2OC)[C@H](c2ccccc2)C1 [Example 33, 2-fluoro-4′-methoxy-3′-({[(3R,4S)-1-(methoxyacetyl)-3-phenylpiperidin-4-yl]amino}methyl)biphenyl-4-carbonitrile]
IC50 [1]: 0.015 nM

COc1ccc(-c2ccc(C#N)cc2F)cc1CN[C@H]1CCN(C(=O)C2CCN(C(C)=O)CC2)C[C@H]1c1ccccc1 [Example 36, 3′-[({(3R,4S)-1-[(1-acetylpiperidin-4-yl)carbonyl]-3-phenylpiperidin-4-yl}amino)methyl]-2-fluoro-4′-methoxybiphenyl-4-carbonitrile]
IC50 [1]: 0.017 nM

C#Cc1ccc(-c2ccc(OC)c(CN[C@H]3CCN(C(=O)CNC(C)=O)C[C@H]3c3ccccc3)c2)cc1 [Example 23, N-[2-((3R,4S)-4-{[(4′-ethynyl-4-methoxybiphenyl-3-yl)methyl]amino}-3-phenylpiperidin-1-yl)-2-oxoethyl]acetamide]
IC50 [1]: 0.015 nM

COc1ccc(-c2ccc(C#N)cc2F)cc1CN[C@H]1CCN(C(=O)CNC(C)=O)C[C@H]1c1ccccc1 [Example 11, N-[2-((3R,4S)-4-{[(4′-cyano-2′-fluoro-4-methoxybiphenyl-3-yl)methyl]amino}-3-phenylpiperidin-1-yl)-2-oxoethyl]acetamide]
IC50 [1]: 0.016 nM

COc1ccc(-c2ccc(Br)cc2)cc1CN[C@H]1CCN(C(=O)CNC(C)=O)C[C@H]1c1ccccc1 [Example 22, N-[2-((3R,4S)-4-{[(4′-bromo-4-methoxybiphenyl-3-yl)methyl]amino}-3-phenylpiperidin-1-yl)-2-oxoethyl]acetamide]
IC50 [1]: 0.018 nM

N#Cc1ccc(-c2ccc(OC(F)(F)F)c(CN[C@H]3CCN(C(=O)C4CC(=O)NC(=O)C4)C[C@H]3c3ccccc3)c2)c(F)c1 [Example 102, 3′-[({(3R,4S)-1-[(2,6-dioxopiperidin-4-yl)carbonyl]-3-phenylpiperidin-4-yl}amino)methyl]-2-fluoro-4′-(trifluoromethoxy)biphenyl-4-carbonitrile]
IC50 [1]: 0.013 nM

COc1ccc(-c2ccc(C#N)cc2)cc1CN[C@H]1CCN(C(=O)Cc2n[nH]c(=O)[nH]2)C[C@H]1c1ccccc1 [Example 44, 4′-methoxy-3′-[({(3R,4S)-1-[(5-oxo-4,5-dihydro-1H-1,2,4-triazol-3-yl)acetyl]-3-phenylpiperidin-4-yl}amino)methyl]biphenyl-4-carbonitrile]
IC50 [1]: 0.015 nM

COc1ccc(-c2ccc(C#N)cc2)cc1CN[C@H]1CCN(C(=O)[C@@H](CC(N)=O)NC(C)=O)C[C@H]1c1ccccc1 [Example 41, (3R)-3-(acetylamino)-4-((3R,4S)-4-{[(4′-cyano-4-methoxybiphenyl-3-yl)methyl]amino}-3-phenylpiperidin-1-yl)-4-oxobutanamide]
IC50 [1]: 0.019 nM

COc1ccc(-c2ccc(C(F)(F)F)cc2)cc1CN[C@H]1CCN(C(=O)CNC(C)=O)C[C@H]1c1ccccc1 [Example 18, N-{2-[(3R,4S)-4-({[4-methoxy-4′-(trifluoromethyl)biphenyl-3-yl]methyl}amino)-3-phenylpiperidin-1-yl]-2-oxoethyl}acetamide]
IC50 [1]: 0.036 nM

COc1ccc(-c2ccc(F)cc2)cc1CN[C@H]1CCN(C(=O)CNC(C)=O)C[C@H]1c1ccccc1 [Example 16, N-[2-((3R,4S)-4-{[(4′-fluoro-4-methoxybiphenyl-3-yl)methyl]amino}-3-phenylpiperidin-1-yl)-2-oxoethyl]acetamide]
IC50 [1]: 0.031 nM

COCC(=O)N1CC[C@H](NCc2cc(-c3ccc(C#N)cc3)ccc2OC)[C@H](c2ccccc2)C1 [Example 32, 4′-methoxy-3′-({[(3R,4S)-1-(methoxyacetyl)-3-phenylpiperidin-4-yl]amino}methyl)biphenyl-4-carbonitrile]
IC50 [1]: 0.015 nM

CC1(C)OC(=O)N(CC(=O)N2CC[C@H](NCc3cc(-c4ccc(C#N)cc4F)ccc3OC(F)(F)F)[C@H](c3ccccc3)C2)C1=O [Example 97, 3′-[({(3R,4S)-1-[(5,5-dimethyl-2,4-dioxo-1,3-oxazolidin-3-yl)acetyl]-3-phenylpiperidin-4-yl}amino)methyl]-2-fluoro-4′-(trifluoromethoxy)biphenyl-4-carbonitrile]
IC50 [1]: 0.023 nM

CC1(C)OC(=O)N(CC(=O)N2CC[C@H](NCc3cc(-c4ccc(Cl)cc4)ccc3OC(F)(F)F)[C@H](c3ccccc3)C2)C1=O [Example 116, 3-{2-[(3R,4S)-4-({[4′-chloro-4-(trifluoromethoxy)biphenyl-3-yl]methyl}amino)-3-phenylpiperidin-1-yl]-2-oxoethyl}-5,5-dimethyl-1;3-oxazolidine-2,4-dione]
IC50 [1]: 0.058 nM
